Experimental data: ChEMBL document CHEMBL4392867, “Asperunguisins A-F, Cytotoxic Asperane Sesterterpenoids from the Endolichenic Fungus Aspergillus unguis” (J Nat Prod, 2019)
Where a name gives a salt, the structure may show the parent alone. Active and inactive are the calls of the source. The rule behind the calls is not given here.

Assays:
[1] = system: U-251; assay: Cytotoxicity in human U251 cells assessed as reduction in cell viability incubated for 48 hrs by MTT assay; type: functional, cell-based; conditions: U-251, 48 h
[2] = system: U-87 MG; assay: Cytotoxicity in human U87 cells assessed as reduction in cell viability incubated for 48 hrs by MTT assay; type: functional, cell-based, U-87MG ATCC
[3] = system: HT-29; assay: Cytotoxicity in human HT-29 cells assessed as reduction in cell viability at 40 uM incubated for 48 hrs by MTT assay; type: functional, cell-based
[4] = system: A549; assay: Cytotoxicity in human A549 cells assessed as reduction in cell viability at 40 uM incubated for 48 hrs by MTT assay; type: functional, cell-based
[5] = system: U-251; assay: Cytotoxicity in human U251 cells assessed as reduction in cell viability at 40 uM incubated for 48 hrs by MTT assay; type: functional, cell-based
[6] = system: U-87 MG; assay: Cytotoxicity in human U87 cells assessed as reduction in cell viability at 40 uM incubated for 48 hrs by MTT assay; type: functional, cell-based; conditions: U-87MG ATCC
[7] = system: SMMC-7721; assay: Cytotoxicity in human SMMC7721 cells assessed as reduction in cell viability at 40 uM incubated for 48 hrs by MTT assay; type: functional, cell-based
[8] = system: HepG2; assay: Cytotoxicity in human HepG2 cells assessed as reduction in cell viability at 40 uM incubated for 48 hrs by MTT assay; type: functional, cell-based
[9] = system: HT-29; assay: Cytotoxicity in human HT-29 cells assessed as reduction in cell viability incubated for 48 hrs by MTT assay; type: functional, cell-based; conditions: HT-29, 48 h
[10] = system: A549; assay: Cytotoxicity in human A549 cells assessed as reduction in cell viability incubated for 48 hrs by MTT assay; type: functional, cell-based; conditions: A549, 48 h
[11] = system: SMMC-7721; assay: Cytotoxicity in human SMMC7721 cells assessed as reduction in cell viability incubated for 48 hrs by MTT assay; type: functional, cell-based; conditions: SMMC-7721, 48 h
[12] = system: HepG2; assay: Cytotoxicity in human HepG2 cells assessed as reduction in cell viability incubated for 48 hrs by MTT assay; type: functional, cell-based; conditions: HepG2, 48 h
[13] = system: A549; assay: Induction of cell cycle arrest in human A549 cells assessed as accumulation at G1 phase incubated for 24 hrs by propidium iodide staining based flow cytometry; type: functional
[14] = system: A549; assay: Induction of cell cycle arrest in human A549 cells assessed as accumulation at G1 phase at 10 uM incubated for 24 hrs by propidium iodide staining based flow cytometry (reference value: 66.99%); type: functional
[15] = system: A549; assay: Induction of cell cycle arrest in human A549 cells assessed as accumulation at G2 phase at 10 uM incubated for 24 hrs by propidium iodide staining based flow cytometry (reference value: 13.54%); type: functional
[16] = system: A549; assay: Induction of cell cycle arrest in human A549 cells assessed as accumulation at S phase at 10 uM incubated for 24 hrs by propidium iodide staining based flow cytometry (reference value: 19.47%); type: functional
[17] = system: A549; assay: Induction of cell cycle arrest in human A549 cells assessed as accumulation at G1 phase at 15 uM incubated for 24 hrs by propidium iodide staining based flow cytometry (reference value: 66.99%); type: functional
[18] = system: A549; assay: Induction of cell cycle arrest in human A549 cells assessed as accumulation at G2 phase at 15 uM incubated for 24 hrs by propidium iodide staining based flow cytometry (reference value: 13.54%); type: functional
[19] = system: A549; assay: Induction of cell cycle arrest in human A549 cells assessed as accumulation at S phase at 15 uM incubated for 24 hrs by propidium iodide staining based flow cytometry (reference value: 19.47%); type: functional
[20] = system: A549; assay: Induction of cell cycle arrest in human A549 cells assessed as accumulation at G1 phase at 20 uM incubated for 24 hrs by propidium iodide staining based flow cytometry (reference value: 66.99%); type: functional
[21] = system: A549; assay: Induction of cell cycle arrest in human A549 cells assessed as accumulation at G2 phase at 20 uM incubated for 24 hrs by propidium iodide staining based flow cytometry (reference value: 13.54%); type: functional
[22] = system: A549; assay: Induction of cell cycle arrest in human A549 cells assessed as accumulation at S phase at 20 uM incubated for 24 hrs by propidium iodide staining based flow cytometry (reference value: 19.47%); type: functional
[23] = system: A549; assay: Induction of apoptosis in human A549 cells assessed as early apoptotic cells level at 10 uM incubated for 24 hrs by Annexin V-FITC and propidium iodide staining based flow cytometry (reference value: 1.81%); type: functional
[24] = system: A549; assay: Induction of apoptosis in human A549 cells assessed as late apoptotic cells level at 10 uM incubated for 24 hrs by Annexin V-FITC and propidium iodide staining based flow cytometry (reference value: 4.14%); type: functional
[25] = system: A549; assay: Induction of apoptosis in human A549 cells assessed as necrotic cells level at 10 uM incubated for 24 hrs by Annexin V-FITC and propidium iodide staining based flow cytometry (reference value: 3.23%); type: functional
[26] = system: A549; assay: Induction of apoptosis in human A549 cells assessed as early apoptotic cells level at 15 uM incubated for 24 hrs by Annexin V-FITC and propidium iodide staining based flow cytometry (reference value: 1.81%); type: functional
[27] = system: A549; assay: Induction of apoptosis in human A549 cells assessed as late apoptotic cells level at 15 uM incubated for 24 hrs by Annexin V-FITC and propidium iodide staining based flow cytometry (reference value: 4.14%); type: functional
[28] = system: A549; assay: Induction of apoptosis in human A549 cells assessed as necrotic cells level at 15 uM incubated for 24 hrs by Annexin V-FITC and propidium iodide staining based flow cytometry (reference value: 3.23%); type: functional
[29] = system: A549; assay: Induction of apoptosis in human A549 cells assessed as early apoptotic cells level at 20 uM incubated for 24 hrs by Annexin V-FITC and propidium iodide staining based flow cytometry (reference value: 1.81%); type: functional
[30] = system: A549; assay: Induction of apoptosis in human A549 cells assessed as late apoptotic cells level at 20 uM incubated for 24 hrs by Annexin V-FITC and propidium iodide staining based flow cytometry (reference value: 4.14%); type: functional
[31] = system: A549; assay: Induction of apoptosis in human A549 cells assessed as necrotic cells level at 20 uM incubated for 24 hrs by Annexin V-FITC and propidium iodide staining based flow cytometry (reference value: 3.23%); type: functional
[32] = system: A549; assay: Cytotoxicity in human A549 cells assessed as reduction in cell viability incubated for 48 hrs in presence of pan-caspase inhibitor Z-VAD-fmk by MTT assay; type: functional, cell-based
[33] = system: A549; assay: Induction of DNA damage in human A549 cells assessed as increase in expression of gamma-H2AX protein expression by Western blot analysis; type: functional, cell-based

## COc1cccc2c1C(=O)c1c(O)c3c(c(O)c1C2=O)C[C@@](O)(C(=O)CO)C[C@@H]3O[C@H]1C[C@H](N)[C@H](O)[C@H](C)O1 [DOXORUBICIN HYDROCHLORIDE]
[1]
  IC50: 2.9 µM
[2]
  IC50: 1.1 µM

## CC(C)[C@@H]1CC[C@]2(C)C1=CC[C@]1(C)[C@H]3CC[C@]4(C)O[C@@H]4C(=O)[C@]3(C)[C@@H](O)C[C@H]12
[3]
  Activity: inactive
[4]
  Activity: inactive
[5]
  Activity: inactive
[6]
  Activity: inactive
[7]
  Activity: inactive
[8]
  Activity: inactive

## C=C1CC[C@@H]2[C@@]3(C)CC=C4[C@H](C(C)C)CC[C@@]4(C)[C@@H]3C[C@H](O)[C@@]2(C)[C@H](O)[C@H]1O
[9]
  IC50: > 40 µM
[10]
  IC50: 16.3 µM
[1]
  IC50: > 40 µM
[2]
  IC50: > 40 µM
[11]
  IC50: > 40 µM
[12]
  IC50: 8.2 µM

## CC1=C[C@@H](O)[C@@]2(C)[C@H](CC1)[C@@]1(C)CC=C3[C@H](C(C)C)CC[C@@]3(C)[C@@H]1C[C@@H]2O
[9]
  IC50: 24.2 µM
[10]
  IC50: > 40 µM
[1]
  IC50: > 40 µM
[2]
  IC50: > 40 µM
[11]
  IC50: > 40 µM
[12]
  IC50: > 40 µM

## C=C1CC[C@@H]2[C@@]3(C)CC=C4[C@H](C(C)C)CC[C@@]4(C)[C@@H]3C[C@H](O)[C@@]2(C)[C@@H]2O[C@@H](c3ccc(O)cc3)O[C@@H]12
[9]
  IC50: > 40 µM
[10]
  IC50: > 40 µM
[1]
  IC50: > 40 µM
[2]
  IC50: > 40 µM
[11]
  IC50: 25.4 µM
[12]
  IC50: > 40 µM

## CC(C)[C@@H]1CC[C@]2(C)C1=CC[C@]1(C)[C@H]3CC[C@]4(C)O[C@@H]4[C@@H](O)[C@]3(C)[C@@H](O)C[C@H]12
[3]
  Activity: inactive
[4]
  Activity: inactive
[5]
  Activity: inactive
[6]
  Activity: inactive
[7]
  Activity: inactive
[8]
  Activity: inactive

## CC(C)[C@@H]1CC[C@]2(C)C1=CC[C@]1(C)[C@H]3CC[C@](C)(O)[C@H](O)[C@@H](O)[C@]3(C)[C@@H](O)C[C@H]12
[3]
  Activity: inactive
[4]
  Activity: inactive
[5]
  Activity: inactive
[6]
  Activity: inactive
[7]
  Activity: inactive
[8]
  Activity: inactive

## CC(C)[C@@H]1CC[C@]2(C)C1=CC[C@]1(C)[C@H]3CC[C@@]4(C)O[C@H]([C@H]4O)[C@]3(C)[C@@H](O)C[C@H]12
[9]
  IC50: 14.6 µM
[10]
  IC50: 6.2 µM
[1]
  IC50: 12.6 µM
[2]
  IC50: 16.4 µM
[11]
  IC50: 15.2 µM
[12]
  IC50: 20.1 µM
[13]
  Activity: Dose-dependent effect
[14]
  Activity: 76.4%
[15]
  Activity: 7.51%
[16]
  Activity: 16.1%
[17]
  Activity: 83.33%
[18]
  Activity: 5.06%
[19]
  Activity: 11.62%
[20]
  Activity: 85.86%
[21]
  Activity: 3.76%
[22]
  Activity: 10.38%
[23]
  Activity: 2.17%
[24]
  Activity: 3.93%
[25]
  Activity: 3.23%
[26]
  Activity: 2.43%
[27]
  Activity: 6.05%
[28]
  Activity: 3.79%
[29]
  Activity: 16.83%
[30]
  Activity: 20.57%
[31]
  Activity: 3.3%
[32]
  Activity: inactive
[33]
  Activity: Dose-dependent effect
